The results in this text go back to US20070275967A1, “Pyrazolinols” (BAYER CROPSCIENCE AKTIENGESELLSCHAFT, priority 2003, published 2007).

SMILES strings stand for the structures.

The series in a line: logP determination by HPLC on reversed-phase column (EEC Directive 79/831 Annex V.A8). The class given is physicochemical. The following applies: acidic range (pH 2.3), marked a); 0.1% aqueous phosphoric acid/acetonitrile gradient; reversed-phase C 18; 43° C. The procedure:
The logP values given in the table were determined in accordance with EEC Directive 79/831 Annex V.A8 by HPLC (High Performance Liquid Chromatography) on a reversed-phase column (C 18). Temperature: 43° C. (a) Mobile phases for the determination in the acidic range (pH 2.3): 0.1% aqueous phosphoric acid, acetonitrile; linear gradient from 10% acetonitrile to 90% acetonitrile—the corresponding measurement results in table 1 are marked a). (b) Mobile phases for the determination in the neutral range (pH 7.5): 0.01-molar aqueous phosphate buffer solution, acetonitrile; linear gradient from 10% acetonitrile to 90% acetonitrile—the corresponding measurement results in table 1 are marked b). Calibration was carried out using unbranched alkan-2-ones (having 3 to 16 carbon atoms) with known logP values (determination of the logP values by the retention times using linear interpolation between two successive alkanones).
On to `CC(C)CC1=NN(C(=O)Nc2ccccc2)C(O)(C(F)(F)F)C1` (racemic) [Example 3], for which the logP entry is “logP = 3.72^a)”. Consider `CC(C)CC1=NN(C(=O)Nc2ccc(Cl)c(Cl)c2)C(O)(C(F)(F)F)C1` (racemic) [Example 4], for which the logP result is given as “logP = 4.63^a)”.

For the compound `CC(C)CC1=NN(C(=O)Nc2ccc(Cl)cc2)C(O)(C(F)(F)F)C1` (racemic) [Example 5], the logP result is listed as “logP = 4.18^a)”. The value for `CC(C)CC1=NN(C(=S)Nc2ccccc2)C(O)(C(F)(F)F)C1` (racemic) [Example 7] was “logP = 4.31^a)”; that for `CC(C)CC1=NN(C(=S)Nc2ccccc2F)C(O)(C(F)(F)F)C1` (racemic) [Example 11] was “logP = 4.23^a)”. In the case of `CCC1=NN(C(=O)Nc2ccc(Cl)cc2)C(O)(C(F)(F)F)C1` (racemic) [Example 13], the logP entry is given as “logP = 3.41^a)”. With `CCC1=NN(C(=S)Nc2ccc(C(C)(C)C)cc2)C(O)(C(F)(F)F)C1` (racemic) [Example 16] the entry was “logP = 4.84^a)”; with `CC(C)C1=NN(C(=O)Nc2ccc(OC(F)(F)F)cc2)C(O)(C(F)(F)F)C1` (racemic) [Example 17], “logP = 4.09^a)”. On to `CC(C)C1=NN(C(=O)Nc2ccc(Cl)cc2)C(O)(C(F)(F)F)C1` (racemic) [Example 18], for which the logP result is “logP = 3.79^a)”. As for `CC(C)C1=NN(C(=S)Nc2ccc(C(C)(C)C)cc2)C(O)(C(F)(F)F)C1` (racemic) [Example 21], the logP entry was “logP = 5.18^a)”. For the compound `COc1ccc(NC(=S)N2N=C(CC(C)C)CC2(O)C(F)(F)F)cc1` (racemic) [Example 23], the logP entry is listed as “logP = 4.17^a)”. Turning to `CC(C)CC1=NN(C(=S)Nc2ccc(C(C)(C)C)cc2)C(O)(C(F)(F)F)C1` (racemic) [Example 25], the logP entry was “logP = 5.50^a)”. Take `CC(C)C1=NN(C(=O)Nc2ccccc2)C(O)(C(F)(F)F)C1` (racemic) [Example 28]: the logP entry is listed as “logP = 3.32^a)”.

As to `CC(C)C1=NN(C(=S)Nc2cccnc2)C(O)(C(F)(F)F)C1` (racemic) [Example 35], the logP result is listed as “logP = 1.96^a)”.

Turning to `CC(C)C1=NN(C(=S)Nc2ccc(OC(F)(F)F)cc2)C(O)(C(F)(F)F)C1` (racemic) [Example 36], the logP entry is listed as “logP = 4.61^a)”. In the case of `CC(C)C1=NN(C(=O)Nc2ccccc2Cl)C(O)(C(F)(F)F)C1` (racemic) [Example 37], the logP result is listed as “logP = 4.10^a)”. With `CCC1=NN(C(=S)Nc2ccccc2)C(O)(C(F)(F)F)C1` (racemic) [Example 38], the logP result is recorded as “logP = 3.57^a)”. For the compound `CCC1=NN(C(=O)Nc2ccccc2)C(O)(C(F)(F)F)C1` (racemic) [Example 39], the logP entry is reported as “logP = 2.91^a)”.

`CC(C)C1=NN(C(=S)NCc2ccco2)C(O)(C(F)(F)F)C1` (racemic) [Example 41]: the logP entry is on record as “logP = 3.78^a)”. As for `CC(C)C1=NN(C(N)=S)C(O)(C(F)(F)F)C1` (racemic) [Example 45], the logP entry was “logP = 2.47^a)”. With `CC(C)C1=NN(C(=O)Nc2cccnc2)C(O)(C(F)(F)F)C1` (racemic) [Example 47], the logP entry is “logP = 1.15^a)”. Regarding `CC(C)C1=NN(C(=O)Nc2ccccn2)C(O)(C(F)(F)F)C1` (racemic) [Example 48], the logP entry was “logP = 1.78^a)”.

With `CCC1=NN(C(=O)Nc2ccc(Cl)cc2)C(O)(C(F)(F)F)C1` (racemic) [Example 49], the logP entry is reported as “logP = 3.43^a)”. The value for `CCC1=NN(C(=O)Nc2ccc(F)cc2)C(O)(C(F)(F)F)C1` (stereo not shown) [Example 50] was “logP = 2.96^a)”; that for `CCC1=NN(C(=O)Nc2ccc(C#N)cc2)C(O)(C(F)(F)F)C1` (stereo not shown) [Example 51] was “logP = 2.65^a)”. Turning to `O=C(Nc1ccc(OC(F)(F)F)cc1)N1N=C(C2(Cl)CC2)CC1(O)C(F)(F)F` (stereo not shown) [Example 52], the logP result is given as “logP = 4.07^a)”.

With `CCC1=NN(C(=S)Nc2ccc(C(F)(F)F)cc2)C(O)(C(F)(F)F)C1` (stereo not shown) [Example 54], the logP result is given as “logP = 4.27^a)”. Consider `CCC1=NN(C(=S)Nc2ccc(Cl)cc2Cl)C(O)(C(F)(F)F)C1` (stereo not shown) [Example 57], for which the logP entry is listed as “logP = 4.53^a)”.

In the case of `CC(C)(C)C1=NN(C(=O)Nc2ccc(Cl)cc2)C(O)(C(F)(F)F)C1` (stereo not shown) [Example 58], the logP result is listed as “logP = 4.16^a)”. Take `CC(C)(C)C1=NN(C(=O)Nc2ccc(Cl)c(Cl)c2)C(O)(C(F)(F)F)C1` (stereo not shown) [Example 59]: the logP result is on record as “logP = 4.62^a)”. The value for `CC(C)(C)C1=NN(C(=O)Nc2ccc(C#N)cc2)C(O)(C(F)(F)F)C1` (stereo not shown) [Example 60] was “logP = 3.34^a)”; that for `COc1ccc(NC(=S)N2N=C(C(C)(C)C)CC2(O)C(F)(F)F)cc1` (stereo not shown) [Example 61] was “logP = 3.54^a)”.

For the compound `Cc1ccc(NC(=S)N2N=C(C(C)(C)C)CC2(O)C(F)(F)F)cc1` (stereo not shown) [Example 62], the logP entry is on record as “logP = 4.62^a)”. Regarding `CC(C)(C)C1=NN(C(=O)Nc2ccccc2)C(O)(C(F)(F)F)C1` (stereo not shown) [Example 65], the logP entry was “logP = 4.58^a)”. Consider `CC(C)(C)C1=NN(C(=O)NC2CCCCC2)C(O)(C(F)(F)F)C1` (stereo not shown) [Example 66], for which the logP entry is reported as “logP = 3.68^a)”. Take `CC(C)(C)C1=NN(C(=O)Nc2ccc(OC(F)(F)F)cc2)C(O)(C(F)(F)F)C1` (stereo not shown) [Example 67]: the logP result is listed as “logP = 4.41^a)”.

With `CC(C)(C)C1=NN(C(=O)Nc2ccc(Cl)cc2Cl)C(O)(C(F)(F)F)C1` (stereo not shown) [Example 68], the logP entry was “logP = 5.18^a)”. `CC(C)(C)C1=NN(C(=O)Nc2ccccc2Cl)C(O)(C(F)(F)F)C1` (stereo not shown) [Example 69]: the logP entry is listed as “logP = 4.48^a)”. Regarding `CC(C)(C)C1=NN(C(=O)NCc2ccc(Cl)cc2)C(O)(C(F)(F)F)C1` (stereo not shown) [Example 71], the logP result is listed as “logP = 3.94^a)”.

With `CC(C)(C)C1=NN(C(=O)NCc2ccccc2Cl)C(O)(C(F)(F)F)C1` (stereo not shown) [Example 72], the logP entry is on record as “logP = 3.97^a)”. With `CCC1=NN(C(=O)Nc2cc(Cl)cc(Cl)c2)C(O)(C(F)(F)F)C1` (stereo not shown) [Example 76] the entry was “logP = 4.34^a)”.

Consider `OC1(C(F)(F)F)CC(C2(Cl)CC2)=NN1C(=S)Nc1ccc(C(F)(F)F)cc1` (stereo not shown) [Example 78], for which the logP entry is “logP = 4.41^a)”.

As for `OC1(C(F)(F)F)CC(C2(Cl)CC2)=NN1C(=S)Nc1ccc(Cl)cc1` (stereo not shown) [Example 79], the logP result is “logP = 4.36^a)”. As for `O=C(Nc1ccc(Cl)cc1)N1N=C(c2ccco2)CC1(O)C(F)(F)F` (stereo not shown) [Example 80], the logP result is recorded as “logP = 3.41^a)”. Turning to `OC1(C(F)(F)F)CC(c2ccco2)=NN1C(=S)Nc1ccc(Cl)cc1` (stereo not shown) [Example 81], the logP result is given as “logP = 3.99^a)”. The value for `O=C(Nc1ccc(Cl)cc1)N1N=C(c2ccccc2)CC1(O)C(F)(F)F` (stereo not shown) [Example 82] was “logP = 3.97^a)”; that for `CCC1=NN(C(=S)Nc2c(F)cccc2F)C(O)(C(F)(F)F)C1` (stereo not shown) [Example 84] was “logP = 3.30^a)”. In the case of `CCC1=NN(C(=S)Nc2cc(Cl)ccc2Cl)C(O)(C(F)(F)F)C1` (stereo not shown) [Example 85], the logP entry was “logP = 4.47^a)”. For `CCC1=NN(C(=S)Nc2ccc(OC)cc2)C(O)(C(F)(F)F)C1` (stereo not shown) [Example 86], the logP entry was “logP = 3.47^a)”. In the case of `CCC1=NN(C(=S)Nc2cccc(Cl)c2Cl)C(O)(C(F)(F)F)C1` (stereo not shown) [Example 87], the logP entry was “logP = 4.29^a)”. With `CCC1=NN(C(=S)Nc2ccc(Oc3ccccc3)cc2)C(O)(C(F)(F)F)C1` (stereo not shown) [Example 88] the entry was “logP = 4.52^a)”; with `CCC1=NN(C(=S)Nc2c(F)cc(F)cc2F)C(O)(C(F)(F)F)C1` (stereo not shown) [Example 89], “logP = 3.52^a)”; with `CCC1=NN(C(=S)Nc2cc(C(F)(F)F)ccc2Cl)C(O)(C(F)(F)F)C1` (stereo not shown) [Example 90], “logP = 4.51^a)”. For `CCC1=NN(C(=S)Nc2ccccc2OC)C(O)(C(F)(F)F)C1` (stereo not shown) [Example 91], the logP result is reported as “logP = 3.85^a)”. On to `CCC1=NN(C(=S)Nc2cc(Cl)cc(Cl)c2)C(O)(C(F)(F)F)C1` (stereo not shown) [Example 92], for which the logP result is “logP = 4.75^a)”.

For `CCC1=NN(C(=S)Nc2ccc(F)cc2)C(O)(C(F)(F)F)C1` (stereo not shown) [Example 93], the logP result was “logP = 3.62^a)”. Regarding `CCC1=NN(C(=S)Nc2cccc(F)c2)C(O)(C(F)(F)F)C1` (stereo not shown) [Example 94], the logP result is reported as “logP = 3.71^a)”.

Consider `CCC1=NN(C(=S)Nc2ccc(OC(F)(F)F)cc2)C(O)(C(F)(F)F)C1` (stereo not shown) [Example 95], for which the logP result is recorded as “logP = 4.31^a)”. With `CCC1=NN(C(=S)Nc2ccc(Cl)c(Cl)c2)C(O)(C(F)(F)F)C1` (stereo not shown) [Example 96], the logP result was “logP = 4.61^a)”. Turning to `CCC1=NN(C(=O)NCc2ccc(Cl)c(Cl)c2)C(O)(C(F)(F)F)C1` (stereo not shown) [Example 97], the logP entry is reported as “logP = 4.34^a)”. `CCC1=NN(C(=S)Nc2ccccc2F)C(O)(C(F)(F)F)C1` (stereo not shown) [Example 98]: the logP result was “logP = 3.51^a)”. With `CCC1=NN(C(=S)Nc2ccc(C(C)(C)C)cc2)C(O)(C(F)(F)F)C1` (stereo not shown) [Example 99], the logP result is “logP = 4.85^a)”. Regarding `COc1ccc(NC(=S)N2N=C(C)CC2(O)C(F)(F)F)cc1` (stereo not shown) [Example 102], the logP result was “logP = 3.10^a)”. Consider `CC1=NN(C(=S)Nc2cccc(Cl)c2Cl)C(O)(C(F)(F)F)C1` (stereo not shown) [Example 103], for which the logP result is reported as “logP = 3.75^a)”. The value for `CC1=NN(C(=S)Nc2ccc(Oc3ccccc3)cc2)C(O)(C(F)(F)F)C1` (stereo not shown) [Example 104] was “logP = 4.15^a)”; that for `CC1=NN(C(=S)Nc2c(F)cc(F)cc2F)C(O)(C(F)(F)F)C1` (stereo not shown) [Example 105] was “logP = 3.12^a)”; that for `CC1=NN(C(=S)Nc2cc(C(F)(F)F)ccc2Cl)C(O)(C(F)(F)F)C1` (stereo not shown) [Example 107] was “logP = 3.94^a)”.
